Assay results from publication PMC5666424, “Marine-Derived 2-Aminoimidazolone Alkaloids. Leucettamine B-Related Polyandrocarpamines Inhibit Mammalian and Protozoan DYRK & CLK Kinases” (Marine Drugs, 2017).

How the values were obtained:
Assay in all cases: KinomeScan
Type in all cases: binding
Settings in all cases: 1 μM
CSNK2A1 = biological target: T1, CSNK2A1 (Homo sapiens, UniProt P68400)
T1 construct: purchased DiscoverX (KINOMEscan)
Method: (§1) Assays were performed essentially as described previously. For most assays, kinase-tagged T7 phage strains were grown in parallel in 24-well blocks in an E. coli host derived from the BL21 strain. E. coli were grown to log-phase and infected with T7 phage from a frozen stock (multiplicity of infection ~0.1) and incubated with shaking at 32 °C until lysis (~90 min). The lysates were centrifuged (6000× g) and filtered (0.2 μm) to remove cell debris. The remaining kinases were produced in HEK-293 cells and subsequently tagged with DNA for qPCR detection. […] The liganded beads were blocked with excess biotin and washed with blocking buffer (SeaBlock (Pierce, ThermoFisher Scientific, Illkirch, France), 1% BSA, 0.05% Tween 20, 1 mM DTT) to remove unbound ligand and to reduce non-specific phage binding. […] An 11-point threefold serial dilution of each test compound was prepared in 100% DMSO at 100× final test concentration which and subsequently diluted to 1× in the assay. All reactions were performed in polystyrene 96-well plates in a final volume of 0.135 mL. […] The kinase concentration in the eluates was measured by qPCR.

GRK7 = biological target: T2, GRK7 (Homo sapiens, UniProt Q8WTQ7)
T2 construct: purchased DiscoverX (KINOMEscan)
Method: as §1

LATS2 = biological target: T3, LATS2 (Homo sapiens, UniProt Q9NRM7)
T3 construct: purchased DiscoverX (KINOMEscan)
Method: as §1

MERTK = biological target: T4, MERTK (Homo sapiens, UniProt Q12866)
T4 construct: purchased DiscoverX (KINOMEscan)
Method: as §1

CLK4 = biological target: T5, CLK4 (Homo sapiens, UniProt Q9HAZ1)
T5 construct: purchased DiscoverX (KINOMEscan)
Method: as §1

MAP4K4 = biological target: T6, MAP4K4 (Homo sapiens, UniProt O95819)
T6 construct: purchased DiscoverX (KINOMEscan)
Method: as §1

EPHB4 = biological target: T7, EPHB4 (Homo sapiens, UniProt P54760)
T7 construct: purchased DiscoverX (KINOMEscan)
Method: as §1

EGFR(E746-A750del) = biological target: T8, EGFR(E746-A750del) (Homo sapiens, UniProt P00533, DEL746-750)
T8 construct: purchased DiscoverX (KINOMEscan)
Method: as §1

MARK2 = biological target: T9, MARK2 (Homo sapiens, UniProt Q7KZI7)
T9 construct: purchased DiscoverX (KINOMEscan)
Method: as §1

MKNK2 = biological target: T10, MKNK2 (Homo sapiens, UniProt Q9HBH9)
T10 construct: purchased DiscoverX (KINOMEscan)
Method: as §1

CAMK1G = biological target: T11, CAMK1G (Homo sapiens, UniProt Q96NX5)
T11 construct: purchased DiscoverX (KINOMEscan)
Method: as §1

STK36 = biological target: T12, STK36 (Homo sapiens, UniProt Q9NRP7)
T12 construct: purchased DiscoverX (KINOMEscan)
Method: as §1

EGFR(L861Q) = biological target: T13, EGFR(L861Q) (Homo sapiens, UniProt P00533, L861Q)
T13 construct: purchased DiscoverX (KINOMEscan)
Method: as §1

ACVR2A = biological target: T14, ACVR2A (Homo sapiens, UniProt P27037)
T14 construct: purchased DiscoverX (KINOMEscan)
Method: as §1

DAPK3 = biological target: T15, DAPK3 (Homo sapiens, UniProt O43293)
T15 construct: purchased DiscoverX (KINOMEscan)
Method: as §1

FES = biological target: T16, FES (Homo sapiens, UniProt P07332)
T16 construct: purchased DiscoverX (KINOMEscan)
Method: as §1

WEE2 = biological target: T17, WEE2 (Homo sapiens, UniProt P0C1S8)
T17 construct: purchased DiscoverX (KINOMEscan)
Method: as §1

MLK3 = biological target: T18, MLK3 (Homo sapiens, UniProt Q16584)
T18 construct: purchased DiscoverX (KINOMEscan)
Method: as §1

ADCK3 = biological target: T19, ADCK3 (Homo sapiens, UniProt Q8NI60)
T19 construct: purchased DiscoverX (KINOMEscan)
Method: as §1

MARK4 = biological target: T20, MARK4 (Homo sapiens, UniProt Q96L34)
T20 construct: purchased DiscoverX (KINOMEscan)
Method: as §1

HIPK2 = biological target: T21, HIPK2 (Homo sapiens, UniProt Q9H2X6)
T21 construct: purchased DiscoverX (KINOMEscan)
Method: as §1

[1] = biological target: T22, ABL1(H396P)-phosphorylated (Homo sapiens, UniProt P00519, H396P)
T22 construct: purchased DiscoverX (KINOMEscan)
Method: as §1

EPHB2 = biological target: T23, EPHB2 (Homo sapiens, UniProt P29323)
T23 construct: purchased DiscoverX (KINOMEscan)
Method: as §1

MELK = biological target: T24, MELK (Homo sapiens, UniProt Q14680)
T24 construct: purchased DiscoverX (KINOMEscan)
Method: as §1

FGR = biological target: T25, FGR (Homo sapiens, UniProt P09769)
T25 construct: purchased DiscoverX (KINOMEscan)
Method: as §1

TGFBR1 = biological target: T26, TGFBR1 (Homo sapiens, UniProt P36897)
T26 construct: purchased DiscoverX (KINOMEscan)
Method: as §1

FAK = biological target: T27, FAK (Homo sapiens, UniProt Q05397)
T27 construct: purchased DiscoverX (KINOMEscan)
Method: as §1

AKT3 = biological target: T28, AKT3 (Homo sapiens, UniProt Q9Y243)
T28 construct: purchased DiscoverX (KINOMEscan)
Method: as §1

CSNK1G1 = biological target: T29, CSNK1G1 (Homo sapiens, UniProt Q9HCP0)
T29 construct: purchased DiscoverX (KINOMEscan)
Method: as §1

CAMK1D = biological target: T30, CAMK1D (Homo sapiens, UniProt Q8IU85)
T30 construct: purchased DiscoverX (KINOMEscan)
Method: as §1

IRAK3 = biological target: T31, IRAK3 (Homo sapiens, UniProt Q9Y616)
T31 construct: purchased DiscoverX (KINOMEscan)
Method: as §1

TXK = biological target: T32, TXK (Homo sapiens, UniProt P42681)
T32 construct: purchased DiscoverX (KINOMEscan)
Method: as §1

MAP3K2 = biological target: T33, MAP3K2 (Homo sapiens, UniProt Q9Y2U5)
T33 construct: purchased DiscoverX (KINOMEscan)
Method: as §1

MINK = biological target: T34, MINK (Homo sapiens, UniProt Q8N4C8)
T34 construct: purchased DiscoverX (KINOMEscan)
Method: as §1

KIT(L576P) = biological target: T35, KIT(L576P) (Homo sapiens, UniProt P10721, L576P)
T35 construct: purchased DiscoverX (KINOMEscan)
Method: as §1

EGFR(L858R,T790M) = biological target: T36, EGFR(L858R,T790M) (Homo sapiens, UniProt P00533, L858R/T790M)
T36 construct: purchased DiscoverX (KINOMEscan)
Method: as §1

TRKA = biological target: T37, TRKA (Homo sapiens, UniProt P04629)
T37 construct: purchased DiscoverX (KINOMEscan)
Method: as §1

T18 sequence (Q16584 whole entry): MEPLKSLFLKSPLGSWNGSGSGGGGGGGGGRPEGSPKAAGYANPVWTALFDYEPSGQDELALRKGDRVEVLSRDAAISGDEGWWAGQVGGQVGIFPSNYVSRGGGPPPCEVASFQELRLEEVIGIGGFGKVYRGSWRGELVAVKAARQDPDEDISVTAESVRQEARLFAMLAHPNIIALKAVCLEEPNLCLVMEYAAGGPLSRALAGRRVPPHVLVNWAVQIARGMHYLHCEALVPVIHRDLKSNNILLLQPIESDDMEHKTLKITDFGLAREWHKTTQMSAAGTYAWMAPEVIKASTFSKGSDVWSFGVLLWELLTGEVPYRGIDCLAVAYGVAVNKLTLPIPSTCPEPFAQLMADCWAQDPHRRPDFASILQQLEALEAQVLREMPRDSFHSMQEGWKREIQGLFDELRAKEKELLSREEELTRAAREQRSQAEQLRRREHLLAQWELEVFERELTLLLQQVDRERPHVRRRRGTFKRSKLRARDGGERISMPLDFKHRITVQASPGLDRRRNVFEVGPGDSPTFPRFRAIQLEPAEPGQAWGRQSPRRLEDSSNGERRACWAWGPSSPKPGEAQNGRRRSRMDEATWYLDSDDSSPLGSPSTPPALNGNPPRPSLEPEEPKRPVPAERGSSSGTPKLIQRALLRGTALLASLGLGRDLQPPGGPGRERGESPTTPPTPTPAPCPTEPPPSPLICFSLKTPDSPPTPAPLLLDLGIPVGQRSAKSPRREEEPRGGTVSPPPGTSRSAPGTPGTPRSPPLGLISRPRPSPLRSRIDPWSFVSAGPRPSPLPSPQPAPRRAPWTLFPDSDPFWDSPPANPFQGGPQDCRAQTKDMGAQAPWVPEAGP
T26 sequence (P36897 34-503): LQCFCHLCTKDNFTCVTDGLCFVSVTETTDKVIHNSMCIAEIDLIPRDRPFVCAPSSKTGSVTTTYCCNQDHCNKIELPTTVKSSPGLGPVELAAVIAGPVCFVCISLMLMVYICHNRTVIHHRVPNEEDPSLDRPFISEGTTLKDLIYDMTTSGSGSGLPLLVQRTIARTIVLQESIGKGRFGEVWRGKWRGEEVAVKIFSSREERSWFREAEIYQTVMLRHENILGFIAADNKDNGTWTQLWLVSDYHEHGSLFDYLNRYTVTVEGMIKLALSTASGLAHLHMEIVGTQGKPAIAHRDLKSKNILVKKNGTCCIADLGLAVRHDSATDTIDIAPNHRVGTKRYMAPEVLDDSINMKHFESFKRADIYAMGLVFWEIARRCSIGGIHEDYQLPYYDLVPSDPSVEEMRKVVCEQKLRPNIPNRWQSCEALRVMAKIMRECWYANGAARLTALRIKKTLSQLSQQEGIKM
T11 sequence (Q96NX5 whole entry): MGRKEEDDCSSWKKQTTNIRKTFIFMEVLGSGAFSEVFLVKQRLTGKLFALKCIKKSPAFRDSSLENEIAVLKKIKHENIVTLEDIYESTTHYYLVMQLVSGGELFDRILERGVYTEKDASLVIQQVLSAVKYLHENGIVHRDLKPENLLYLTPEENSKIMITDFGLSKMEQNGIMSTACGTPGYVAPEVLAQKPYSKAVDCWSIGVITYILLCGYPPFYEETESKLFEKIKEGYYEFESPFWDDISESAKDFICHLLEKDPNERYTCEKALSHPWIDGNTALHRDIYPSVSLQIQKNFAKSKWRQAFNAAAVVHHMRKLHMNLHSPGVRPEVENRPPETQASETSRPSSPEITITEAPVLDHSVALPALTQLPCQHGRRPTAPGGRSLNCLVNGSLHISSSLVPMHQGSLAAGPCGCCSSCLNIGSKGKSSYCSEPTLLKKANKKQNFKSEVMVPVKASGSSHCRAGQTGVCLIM
T27 sequence (Q05397 whole entry): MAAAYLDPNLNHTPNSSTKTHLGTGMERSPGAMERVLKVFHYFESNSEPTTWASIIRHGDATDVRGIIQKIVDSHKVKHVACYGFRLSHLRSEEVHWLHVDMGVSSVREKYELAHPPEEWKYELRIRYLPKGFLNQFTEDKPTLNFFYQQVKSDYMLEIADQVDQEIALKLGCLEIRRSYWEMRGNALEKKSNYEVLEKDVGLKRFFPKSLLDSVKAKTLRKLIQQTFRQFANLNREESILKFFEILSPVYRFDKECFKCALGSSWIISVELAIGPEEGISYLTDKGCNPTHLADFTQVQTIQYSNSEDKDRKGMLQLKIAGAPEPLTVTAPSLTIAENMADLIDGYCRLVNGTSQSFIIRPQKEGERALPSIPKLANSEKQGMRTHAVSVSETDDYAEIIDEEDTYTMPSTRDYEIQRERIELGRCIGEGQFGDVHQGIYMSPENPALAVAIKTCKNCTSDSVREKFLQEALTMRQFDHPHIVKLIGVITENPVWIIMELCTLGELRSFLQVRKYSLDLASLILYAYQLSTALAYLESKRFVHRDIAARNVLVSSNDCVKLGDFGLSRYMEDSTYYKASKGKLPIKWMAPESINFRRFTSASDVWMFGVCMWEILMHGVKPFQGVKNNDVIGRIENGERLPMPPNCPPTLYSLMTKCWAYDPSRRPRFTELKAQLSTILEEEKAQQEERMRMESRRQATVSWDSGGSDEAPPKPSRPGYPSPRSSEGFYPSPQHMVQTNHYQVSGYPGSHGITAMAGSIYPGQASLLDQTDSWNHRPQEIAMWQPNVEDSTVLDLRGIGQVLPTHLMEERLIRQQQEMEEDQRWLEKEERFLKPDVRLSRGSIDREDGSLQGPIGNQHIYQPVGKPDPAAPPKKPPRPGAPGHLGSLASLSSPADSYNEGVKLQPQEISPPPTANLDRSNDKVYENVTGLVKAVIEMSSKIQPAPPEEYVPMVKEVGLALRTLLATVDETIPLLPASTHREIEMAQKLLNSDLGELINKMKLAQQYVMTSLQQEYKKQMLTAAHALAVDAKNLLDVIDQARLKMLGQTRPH
T4 sequence (Q12866 21-999): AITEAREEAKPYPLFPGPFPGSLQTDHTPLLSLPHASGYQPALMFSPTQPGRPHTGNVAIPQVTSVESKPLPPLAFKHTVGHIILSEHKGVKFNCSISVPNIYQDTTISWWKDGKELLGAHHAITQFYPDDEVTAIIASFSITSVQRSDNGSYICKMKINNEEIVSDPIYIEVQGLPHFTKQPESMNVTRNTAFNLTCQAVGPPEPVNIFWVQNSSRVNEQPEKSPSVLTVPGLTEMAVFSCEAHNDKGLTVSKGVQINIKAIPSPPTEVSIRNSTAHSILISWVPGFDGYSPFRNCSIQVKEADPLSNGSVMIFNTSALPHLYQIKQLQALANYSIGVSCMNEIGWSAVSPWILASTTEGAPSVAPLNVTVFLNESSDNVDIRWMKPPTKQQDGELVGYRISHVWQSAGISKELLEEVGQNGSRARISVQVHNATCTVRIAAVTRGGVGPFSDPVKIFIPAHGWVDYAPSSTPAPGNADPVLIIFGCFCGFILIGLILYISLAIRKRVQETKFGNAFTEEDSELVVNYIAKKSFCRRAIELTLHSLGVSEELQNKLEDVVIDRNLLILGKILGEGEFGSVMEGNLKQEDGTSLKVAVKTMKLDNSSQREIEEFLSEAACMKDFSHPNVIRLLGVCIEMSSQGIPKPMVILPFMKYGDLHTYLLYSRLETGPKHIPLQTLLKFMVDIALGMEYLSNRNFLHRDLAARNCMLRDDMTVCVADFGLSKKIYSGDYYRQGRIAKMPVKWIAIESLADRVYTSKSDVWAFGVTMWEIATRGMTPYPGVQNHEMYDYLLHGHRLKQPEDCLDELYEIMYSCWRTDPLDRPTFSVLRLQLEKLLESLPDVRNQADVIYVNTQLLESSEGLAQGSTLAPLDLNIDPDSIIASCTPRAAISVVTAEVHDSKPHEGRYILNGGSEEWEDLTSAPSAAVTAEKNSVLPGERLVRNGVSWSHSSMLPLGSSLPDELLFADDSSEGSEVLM
T7 sequence (P54760 16-987): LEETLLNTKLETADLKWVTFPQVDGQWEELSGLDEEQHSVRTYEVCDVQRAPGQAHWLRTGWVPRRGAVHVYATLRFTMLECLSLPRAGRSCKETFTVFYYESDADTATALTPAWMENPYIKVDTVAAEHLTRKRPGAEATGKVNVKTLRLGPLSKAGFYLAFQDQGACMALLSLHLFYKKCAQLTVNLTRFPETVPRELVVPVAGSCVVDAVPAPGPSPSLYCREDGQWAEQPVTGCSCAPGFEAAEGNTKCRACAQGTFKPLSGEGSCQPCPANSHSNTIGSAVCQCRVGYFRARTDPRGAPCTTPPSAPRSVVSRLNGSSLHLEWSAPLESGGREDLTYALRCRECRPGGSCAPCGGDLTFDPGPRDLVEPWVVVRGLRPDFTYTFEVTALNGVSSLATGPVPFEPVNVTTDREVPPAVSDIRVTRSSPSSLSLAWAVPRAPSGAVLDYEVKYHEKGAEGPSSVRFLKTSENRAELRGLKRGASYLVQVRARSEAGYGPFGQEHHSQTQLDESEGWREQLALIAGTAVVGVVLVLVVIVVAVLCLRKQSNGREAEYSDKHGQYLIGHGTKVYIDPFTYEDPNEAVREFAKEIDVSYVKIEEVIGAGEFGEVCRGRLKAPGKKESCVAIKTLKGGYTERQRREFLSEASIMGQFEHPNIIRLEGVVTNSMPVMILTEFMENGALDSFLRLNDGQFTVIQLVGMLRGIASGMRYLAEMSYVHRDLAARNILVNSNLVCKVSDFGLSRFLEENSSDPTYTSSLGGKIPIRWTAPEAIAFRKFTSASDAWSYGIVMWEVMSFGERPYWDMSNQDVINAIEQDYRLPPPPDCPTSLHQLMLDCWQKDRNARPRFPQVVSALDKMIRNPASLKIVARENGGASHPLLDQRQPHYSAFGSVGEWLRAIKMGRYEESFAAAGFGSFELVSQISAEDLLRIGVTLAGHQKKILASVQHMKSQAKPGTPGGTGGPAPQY

COc1cc(/C=C2\N=C(N)NC2=O)ccc1O [Polyandrocarpamine A]
Score (CSNK2A1): 12 | Score (GRK7): 100 | Score (LATS2): 100 | Score (MERTK): 100 | Score (CLK4): 30 | Score (MAP4K4): 98 | Score (EPHB4): 100 | Score (EGFR(E746-A750del)): 100 | Score (MARK2): 100 | Score (MKNK2): 100 | Score (CAMK1G): 100 | Score (STK36): 96 | Score (EGFR(L861Q)): 100 | Score (ACVR2A): 100 | Score (DAPK3): 50 | Score (FES): 96 | Score (WEE2): 100 | Score (MLK3): 100 | Score (ADCK3): 100 | Score (MARK4): 100 | Score (HIPK2): 50 | Score [1]: 100 | Score (EPHB2): 79 | Score (MELK): 100 | Score (FGR): 100 | Score (TGFBR1): 100 | Score (FAK): 94 | Score (AKT3): 100 | Score (CSNK1G1): 100 | Score (CAMK1D): 100 | Score (IRAK3): 98 | Score (TXK): 100 | Score (MAP3K2): 100 | Score (MINK): 100 | Score (KIT(L576P)): 99 | Score (EGFR(L858R,T790M)): 100 | Score (TRKA): 95
